Results from PMC4170105 (Journal of nuclear medicine : official publication, Society …, 2013).
pKi: −log10 of the molar value. Like-named read-outs stand apart in the source and are kept apart here. Values belong to the compound of their own block, whether it stands above or below them.

Legend:
S2Rs = conditions: no reference given, cited from earlier work
S1Rs [1] = target: T1, S1Rs (Rattus norvegicus, UniProt Q9R0C9); experiment: Blocking biodistribution in rats pretreated with S1R ligands; format: in vivo; conditions: pretreatment 1 mg/kg
S1Rs [2] = conditions: cited from earlier work
5-HT2 receptors = conditions: no reference given; cited from earlier work
S1Rs [3] = target: T1, S1Rs; experiment: Rat brain PET/CT imaging, baseline and BD1047 blocking; format: in vivo; conditions: BD1047 1 mg/kg i.v. 10 min before tracer; 50–60 min after injection
[4] = Stability in human liver microsomes; format: in vitro ADME; conditions: errors SEM
[5] = cited from earlier work
[6] = mouse liver microsomes; errors SEM; previously reported; cited from earlier work
S1Rs [7] = target: T1, S1Rs; experiment: Ex vivo autoradiography of rat brain and muscle sections; format: in vivo; conditions: baseline
S1Rs [8] = tested on: S1Rs
[9] = Ex vivo stability in rat plasma and brain homogenates
[10] = monkey plasma
[11] = Ex vivo biodistribution in rats; conditions: rat
[12] = 5 min after injection, i.v., n = 4

T1 sequence (Q9R0C9 whole entry): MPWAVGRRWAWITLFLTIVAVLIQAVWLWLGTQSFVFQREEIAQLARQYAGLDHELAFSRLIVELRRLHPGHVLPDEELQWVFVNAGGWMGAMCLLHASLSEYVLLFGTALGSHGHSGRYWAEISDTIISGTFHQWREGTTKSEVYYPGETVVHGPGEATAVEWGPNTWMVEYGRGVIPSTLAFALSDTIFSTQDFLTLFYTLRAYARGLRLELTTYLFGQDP

Structure (SMILES): CN(C)CCN(C)CCc1ccc(Cl)c(Cl)c1 [BD1047]
fold lower affinity for S2Rs than for S1Rs (S2Rs): approximately 50 fold
pKi (S2Rs; read-out: Ki for S2Rs): 7.33
radioactive signal in bone/skull of pretreated rats compared with baseline rats (S1Rs [1]; 60 min after injection): did not display this same trend
reduction in radiotracer binding in liver, pancreas, and heart (S1Rs [1]; P < 0.05, < 0.05, < 0.005): significant reduction
pKi (S1Rs [2]; read-out: Ki for S1Rs, no reference given): 9.03
affinity for 5-HT2 receptors (5-HT2 receptors): low micromolar affinity
reduction in ^18F-FTC-146 accumulation in rat brain (PET/CT) (S1Rs [3]): 86%

t1/2 [4]: 18.2 min
Structure (SMILES): O=c1sc2cc(CCCF)ccc2n1CCN1CCCCCC1 [FTC-146]

Structure (SMILES): COc1ccc(CCN2CCN(CCCc3ccccc3)CC2)cc1OC [^11C-SA4503]
unchanged radioligand in monkey plasma ([5]; 90 min after injection): 31%

Structure (SMILES): COc1cc(CCN2CCN(CCCc3ccccc3)CC2)ccc1OCC[18F] [^18F-FE-SA4503]
parent compound present in monkey plasma ([5]; 120 min after injection of tracer): 23%

Structure (SMILES): O=c1sc2cc(CCCF)ccc2n1CCN1CCCCCC1 [^18F-FTC-146]
pKi (S1Rs [2]; read-out: affinity for S1Rs, in vitro binding): 11.60

Structure (SMILES): O=c1sc2cc(CCC[18F])ccc2n1CCN1CCCCCC1 [^18F-FTC-146]
t1/2 [4]: 18.2 ± 3.6 min
t1/2 [6]: 4.2 ± 0.6 min
uptake in corpus callosum and muscle (autoradiography) (S1Rs [7]): little, if any, uptake
average maximum uptake in all analyzed brain regions (S1Rs [8]; monkey, in vivo, 0.25 h): approximately 0.4 %ID/g
uptake in cerebellum (S1Rs [8]; monkey, in vivo, 1 h): 0.27 %ID/g
uptake in occipital cortex (S1Rs [8]; monkey, in vivo, 1 h): 0.27 %ID/g
uptake in striatum (S1Rs [8]; monkey, in vivo, 1 h): 0.20 %ID/g
brain uptake level after gradual washout (S1Rs [8]; monkey, in vivo, 2 h): approximately 0.25 %ID/g
percentage intact radiotracer in plasma ([9]; 15 min after injection): 27.1% ± 5.3%
percentage intact radiotracer in plasma ([9]; 30 min after injection): 25.3% ± 1.3%
percentage intact radiotracer in plasma ([9]; 60 min after injection): 19.5% ± 4.4%
intact ^18F-FTC-146 in plasma ([10]; 5 min): 60%
intact ^18F-FTC-146 in plasma ([10]; 15 min): 35%
intact parent tracer in plasma (lower plateau) ([10]; between 50 and 110 min): 15%
time of peak uptake in the brain [11]: 15 min
uptake in kidney [11, 12]: 2.14 ± 0.29 %ID/g
uptake in lung [11, 12]: 4.91 ± 0.63 %ID/g
uptake in pancreas [11, 12]: 1.58 ± 0.21 %ID/g
uptake in spleen [11, 12]: 1.34 ± 0.35 %ID/g
decrease of accumulation in the lungs ([11]; from 5 to 60 min after injection): 75%
uptake in blood and muscle ([11]; throughout the duration of the study): Negligible uptake
washout of radiotracer uptake in pancreas, liver, and spleen ([11]; throughout the study (5-60 min)): did not significantly wash out

Structure (SMILES): O=C(CCCN1CCC(O)(c2ccc(Cl)cc2)CC1)c1ccc(F)cc1 [haloperidol, reference compound]
decrease of ^18F-FTC-146 binding in occipital cortex (S1Rs [8]; haloperidol 0.1 mg/kg 10 min before radioligand, 60–75 min after injection): 53%
